From ChEMBL document CHEMBL4334550, “Toward Orally Absorbed Prodrugs of the Antibiotic Aztreonam. Design of Novel Prodrugs of Sulfate Containing Drugs. Part 2” (ACS Med Chem Lett, 2020)

How the values were obtained:
Liver carboxylesterase 1 [1] = target: T1, Liver carboxylesterase 1 (Homo sapiens, UniProt P23141); assay: Prodrug conversion assessed as CES1 (unknown origin) mediated aztreonam release in 2.5% acetonitrile in 0.05M citrate buffer at 0.5 mg/ml at pH 4.7 at 37degC after 2 mins in presence of 150 units/ml of CES1 enzyme by HPLC analysis; assay type: ADME; settings: pH 4.7, 2 min
T1 sequence (P23141 whole entry): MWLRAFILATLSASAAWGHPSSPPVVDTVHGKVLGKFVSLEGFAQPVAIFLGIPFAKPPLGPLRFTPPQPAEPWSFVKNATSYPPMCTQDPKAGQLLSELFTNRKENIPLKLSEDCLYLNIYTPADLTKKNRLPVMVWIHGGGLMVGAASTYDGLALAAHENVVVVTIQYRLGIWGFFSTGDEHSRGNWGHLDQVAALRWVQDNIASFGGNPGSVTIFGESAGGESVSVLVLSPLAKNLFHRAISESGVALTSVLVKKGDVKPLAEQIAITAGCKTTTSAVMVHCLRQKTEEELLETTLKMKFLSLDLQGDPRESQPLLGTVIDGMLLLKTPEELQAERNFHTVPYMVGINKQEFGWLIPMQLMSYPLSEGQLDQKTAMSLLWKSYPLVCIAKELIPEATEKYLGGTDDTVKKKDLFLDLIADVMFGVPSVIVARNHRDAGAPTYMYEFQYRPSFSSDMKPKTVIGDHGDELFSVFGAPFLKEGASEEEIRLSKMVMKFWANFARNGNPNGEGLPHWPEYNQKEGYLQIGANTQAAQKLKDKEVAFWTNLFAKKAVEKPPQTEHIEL

Liver carboxylesterase 1 [2] = target: T1, Liver carboxylesterase 1; assay: Prodrug conversion assessed as CES1 (unknown origin) mediated aztreonam release in 2.5% acetonitrile in 0.05M citrate buffer at 0.5 mg/ml at pH 4.7 at 37degC after 10 mins in presence of 150 units/ml of CES1 enzyme by HPLC analysis; assay type: ADME; settings: pH 4.7, 10 min
Liver carboxylesterase 1 [3] = target: T1, Liver carboxylesterase 1; assay: Prodrug conversion assessed as CES1 (unknown origin) mediated aztreonam release in 2.5% acetonitrile in 0.05M citrate buffer at 0.5 mg/ml at pH 4.7 at 37degC after 5 mins in presence of 150 units/ml of CES1 enzyme by HPLC analysis; assay type: ADME; settings: pH 4.7, 5 min
Liver carboxylesterase 1 [4] = target: T1, Liver carboxylesterase 1; assay: Prodrug conversion assessed as CES1 (unknown origin) mediated aztreonam release in 2.5% acetonitrile in 0.05M citrate buffer at 0.5 mg/ml at pH 4.7 at 37degC after 20 mins in presence of 150 units/ml of CES1 enzyme by HPLC analysis; assay type: ADME; settings: pH 4.7, 20 min
[5] = Stability of the compound in 2.5% acetonitrile in 0.05M citrate buffer assessed as aztreonam and beta-lactam ring-opened prodrug intermediate release at 0.5 mg/ml at pH 4.7 at 37degC by HPLC analysis; assay type: physicochemical
Liver carboxylesterase 1 [6] = target: T1, Liver carboxylesterase 1; assay: Prodrug conversion assessed as CES1 (unknown origin) mediated aztreonam and beta-lactam ring-opened prodrug intermediate release in 2.5% acetonitrile in 0.05M citrate buffer at 0.5 mg/ml at pH 4.7 at 37degC in presence of CES1 at lower concentration by HPLC analysis; assay type: ADME
Liver carboxylesterase 1 [7] = target: T1, Liver carboxylesterase 1; assay: Prodrug conversion assessed as CES1 (unknown origin) mediated aztreonam release in 2.5% acetonitrile in 0.05M citrate buffer at 0.5 mg/ml at pH 4.7 at 37degC measured immediately in presence of 150 units/ml of CES1 enzyme by HPLC analysis; assay type: ADME; settings: BLD = below limit of detection
Liver carboxylesterase 1 [8] = target: T1, Liver carboxylesterase 1; assay: Prodrug conversion assessed as CES1 (unknown origin) mediated aztreonam release in 2.5% acetonitrile in 0.05M citrate buffer at 0.5 mg/ml at pH 4.7 at 37degC after 30 mins in presence of 150 units/ml of CES1 enzyme by HPLC analysis; assay type: ADME; settings: pH 4.7, 0.5 h
Liver carboxylesterase 1 [9] = target: T1, Liver carboxylesterase 1; assay: Prodrug conversion assessed as CES1 (unknown origin) mediated aztreonam release in 2.5% acetonitrile in 0.05M citrate buffer at 0.5 mg/ml at pH 4.7 at 37degC after 1 min in presence of 150 units/ml of CES1 enzyme by HPLC analysis; assay type: ADME; settings: pH 4.7, 1 min, BLD = below limit of detection
[10] = Oral bioavailability in human at 500 mg administered as solution measured 16 hrs post dosing; assay type: ADME, organism-based; settings: in vivo
[11] = Oral bioavailability in human at 500 mg administered twice as 250 mg tablet formulation measured 16 hrs post dose; assay type: ADME, organism-based; settings: in vivo

Drug metabolism (Liver carboxylesterase 1 [1]) | Drug metabolism (Liver carboxylesterase 1 [2]) | Drug metabolism (Liver carboxylesterase 1 [3]) | Drug metabolism (Liver carboxylesterase 1 [4]) | Stability [5] | Drug metabolism (Liver carboxylesterase 1 [6]) | Drug metabolism (Liver carboxylesterase 1 [7]) | Drug metabolism (Liver carboxylesterase 1 [8]) | Drug metabolism (Liver carboxylesterase 1 [9]) | SMILES | bioavailability [10] | bioavailability [11]
45% | 86% | 76% | 90% | Unstable | Metabolite_Detected | Bld | 90% |  | CCOC(=O)CCC(C)(C)COS(=O)(=O)N1C(=O)[C@@H](NC(=O)/C(=N\OC(C)(C)C(=O)O)c2csc(N)n2)[C@@H]1C.O=C(O)C(F)(F)F |  | 
4% | 14% | 8% | 23% | Unstable | Metabolite_Detected | Bld | 28% | Bld | CCOC(=O)C(C)(C)COS(=O)(=O)N1C(=O)[C@@H](NC(=O)/C(=N\OC(C)(C)C(=O)O)c2csc(N)n2)[C@@H]1C.O=C(O)C(F)(F)F |  | 
> 95% | > 95% | > 95% | > 95% | Unstable | Metabolite_Detected | Bld | > 95% |  | C[C@H]1[C@H](NC(=O)/C(=N\OC(C)(C)C(=O)O)c2csc(N)n2)C(=O)N1S(=O)(=O)OCC(C)(C)CCOC(=O)C(C)(C)C.O=C(O)C(F)(F)F |  | 
 |  |  |  |  |  |  |  |  | C[C@H]1[C@H](NC(=O)/C(=N\OC(C)(C)C(=O)O)c2csc(N)n2)C(=O)N1S(=O)(=O)O [AZTREONAM] | < 1% | < 1%
